The subject of one data set is BCBL-1. The data set is described as follows: WST-1 cytotoxicity assay, BCBL-1 (KSHV+ PEL). The format is cell-based. The following applies: BCBL1, 72 h. The source says:
(§1) Fig 2 Identification of newly synthesized dual inhibitors with anti-PEL activities. (A) The binding mode of (+)-JQ1 with BRD4^BD1 (PDB: 3MXF). BRD4^BD1 is shown as hot pink cartoon with gray surface. Asn140 in BRD4^BD1 is shown as sticks and colored in following pattern: atom C hot pink, atom N dark blue, and atom O yellow. (+)-JQ1 is shown as sticks and colored in following patten: atom C hot pink, atom N dark blue, atom O yellow, atom S golden, and atom Cl green. The solvent exposed region (SEG) of (+)-JQ1 are indicated with white arrow. (B) The binding modes of SAHA and entinostat with HDAC2 (PDB: 3MAX). HDAC2 is shown as blue cartoon with gray surface. Asp181 and His183 in HDAC2 are shown as sticks and colored in following pattern: atom C blue, atom N dark blue, and atom O yellow. The catalytic zinc ion in the active site of HDAC2 is shown as black sphere. SAHA is shown as sticks and colored in following pattern: atom C green, atom N dark blue, and atom O yellow. Entinostat is shown as sticks and colored in following pattern: atom C hot pink, atom N dark blue, and atom O yellow. The SEG of SAHA or entinostat is indicated with white arrow. Hydrogen bonds (H-bonds) are presented by red dash lines. (C) The HDACs/BRD4 dual inhibitors 002-011 were designed by fusing the key pharmacophores of (+)-JQ1 (pink) and HDAC inhibitors (blue), SAHA or entinostat, via various chemical linkers (green). (D) Anti-PEL activities of the new compounds. Five KSHV positive and two KSHV negative lymphoma cell lines were treated with indicated concentrations of these compounds for 72 h. Then the cytotoxicity was determined using the WST-1 assay. (+)-JQ1, SAHA and entinostat were used for the comparisons as single inhibitors. The CC50 for each compound was calculated using GraphPad Prism 5.0 software. Error bars represent S.D. for 3 independent experiments.
(§2) Fig 4 Identification of anti-PEL activities for compound 009 stereoisomers. (A) The chemical structures of anti-HDACs/BRD4 bifunctional molecules 009P1 and 009P2, as well as anti-HDACs or anti-BRD4 mono-functional molecules 009N1, 009N2, 009N3, and 009N4. (B-C) Four KSHV+ PEL cell lines were treated with indicated concentrations of 009P1, 009P2 or 009N1-N4 for 72 h, then the cytotoxicity was determined using the WST-1 assay. (D-I) BCBL-1 cells were treated with these compounds at the respective 2× CC50 for 24 h, then cell cycle (D-F) and apoptosis (G-I) were measured by flow cytometry analysis. Error bars represent S.D. for 3 independent experiments, ** = p<0.01 (vs vehicle control).
(§3) The cell viability following treatment with compounds was assessed by the WST-1 assay (Roche, Indianapolis, Indiana, USA) according to the manufacturer’s protocol as described previously. The absorbance signal was measured using a microplate reader (Biotek Synergy 2). The 50% cytotoxic concentration (CC50) for each compound was calculated from these dose-response curves using the software GraphPad Prism v5.0. Data were normalized as the fold change compared to the DMSO control.
Background: Tetrazolium dyes change colour on reduction, which living cells bring about.

The test system of the next data set is BC-1. Briefly: WST-1 cytotoxicity assay, BC-1 (KSHV+ PEL). The data set is classed as cell-based. The following applies: Homo sapiens, BC1, 72 h.
Excerpt: as §1, §2, §3

The subject of the next data set is BCP-1. Briefly: WST-1 cytotoxicity assay, BCP-1 (KSHV+ PEL). The data set is classed as cell-based. The following applies: BCP-1, 72 h.
Excerpt: as §1, §2, §3

The subject of another data set is JSC-1. The data set is described as follows: WST-1 cytotoxicity assay, JSC-1 (KSHV+ PEL). The format is cell-based. The conditions noted are these: 72 h.
Excerpt: as §1, §2, §3

Another data set concerns HDACs. The data set is described as follows: HDACs signaling by Western blot (H3K9Ac, H4K9Ac, Acetyl-tubulin). The data set is classed as cell-based. The conditions noted are these: BCBL-1 cells, 48 h, Western blot. On the technique in general: Immunoblotting shows a protein as a band on a membrane.
The test system of another data set is BRD4. Briefly: BRD4 signaling by Western blot (c-Myc expression). The format is cell-based. The following applies: BCBL-1 cells, 48 h, Western blot.
Data set [1] in a line: WST-1 cytotoxicity assay, BL-41 (KSHV negative lymphoma). The data set is classed as cell-based. The conditions noted are these: human.
Excerpt: as §1, §3

The nature of data set [2]: WST-1 cytotoxicity assay, BJAB (KSHV negative lymphoma). The conditions noted are these: human. The format is cell-based.
Excerpt: as §1, §3

For a further data set, the system named is BJAB.219. The data set is described as follows: WST-1 cytotoxicity assay, BJAB.219 (KSHV-infected lymphoma). The data set is classed as cell-based. The conditions noted are these: 50% cytotoxic concentration, 72 h, WST-1; read-out: KSHV-infected lymphomas CC50, BJAB.219.
Excerpt: as §1
BCBL-1 and iSLK.219 cells were kindly provided by Dr. Pinghui Feng (University of Southern California). BL-41, BJAB, BCP-1, BC-1, BC-3, JSC-1, HUVEC cells were purchased from American Type Culture Collection (ATCC), and cultured as recommended by the manufacturer. For making BJAB.219 cells, BJAB cells were infected with rKSHV.219 stock by spinoculation as previously reported by centrifugation at 1500×g for 60 min [31]. Then, puromycin (10 μg/ml) was added into the medium at 72 h post-infection and the medium containing puromycin was replaced twice a week. After 6-week high concentration of puromycin selection, BJAB.219 cells were then cultured in the medium with 0.5 μg/ml puromycin.
The cell viability following treatment with compounds was assessed by the WST-1 assay (Roche, Indianapolis, Indiana, USA) according to the manufacturer’s protocol as described previously. The absorbance signal was measured using a microplate reader (Biotek Synergy 2). […]

A further data set deals with HUVEC. Briefly: WST-1 cytotoxicity on primary cells HUVEC. The format is cell-based, human. As to the method:
as §3
Supplementary file ppat.1011089.s006.tif: S5 Fig Cytotoxicity of tested compounds on HUVEC. The primary cells HUVEC were treated with indicated concentrations of compounds for 72 h, then cell viability was assessed using the WST-1 assay. The CC50 for each compound was calculated from the dose-response curves using Graphpad Prism 5.0 software. Data was normalized as the fold change compared to the DMSO control. (TIF) Click here for additional data file.

Read-outs that look alike come from different tables or passages of the source.

This is an account of results in article PMC9879403, “Oncolytic strategy using new bifunctional HDACs/BRD4 inhibitors against virus-associated lymphomas” (PLOS Pathogens, 2023).

Broadly, the CC50 is the concentration giving 50% cytotoxicity. For the compound `Cc1sc2c(c1C)C(c1ccc(Cl)cc1)=N[C@H](CC(=O)O[C@H](C)c1ccc(C(=O)Nc3ccccc3N)cc1)c1nnc(C)n1-2` [009N1, (R)-1-(4-((2-aminophenyl)carbamoyl)phenyl)ethyl 2-((R)-4-(4-chlorophenyl)-2,3,9-trimethyl-6H-thieno[3,2-f][1,2,4]triazolo[4,3-a][1,4]diazepin-6-yl)acetate], the CC50 in the data set with BCBL-1 (read-out: CC50, BCBL-1) is 7560 nM; with BC-1 (read-out: CC50, BC-1), > 10000 nM; in the data set with BCP-1 (read-out: CC50, BCP-1), > 10000 nM; with JSC-1 (read-out: CC50, JSC-1), > 10000 nM. Further, the “H3K9Ac, H4K9Ac and Acetyl-tubulin protein levels” value in the data set on HDACs is given as “upregulated”. Moreover, the c-Myc expression result in the data set with BRD4 was “subtle effect”.

As for `Cc1sc2c(c1C)C(c1ccc(Cl)cc1)=N[C@H](CC(=O)O[C@@H](C)c1ccc(C(=O)Nc3ccccc3N)cc1)c1nnc(C)n1-2` [009N2, (S)-1-(4-((2-aminophenyl)carbamoyl)phenyl)ethyl 2-((R)-4-(4-chlorophenyl)-2,3,9-trimethyl-6H-thieno[3,2-f][1,2,4]triazolo[4,3-a][1,4]diazepin-6-yl)acetate], the CC50 in the data set on BCBL-1 (read-out: CC50, BCBL-1) was 1070 nM; with BC-1 (read-out: CC50, BC-1) it was 3120 nM; in the data set with BCP-1 (read-out: CC50, BCP-1), 7680 nM; with JSC-1 (read-out: CC50, JSC-1), > 10000 nM. The “H3K9Ac, H4K9Ac and Acetyl-tubulin protein levels” value with HDACs is “upregulated”. For the same compound, the c-Myc expression result with BRD4 is “subtle effect”.

As to `COC(=O)c1ccc([C@@H](C)OC(=O)C[C@@H]2N=C(c3ccc(Cl)cc3)c3c(sc(C)c3C)-n3c(C)nnc32)cc1` [009N3, methyl 4-((R)-1-(2-((S)-4-(4-chlorophenyl)-2,3,9-trimethyl-6H-thieno[3,2-f][1,2,4]triazolo[4,3-a][1,4]diazepin-6-yl)acetoxy)ethyl)benzoate], the CC50 with BCBL-1 (read-out: CC50, BCBL-1) was 670 nM; in the data set on BC-1 (read-out: CC50, BC-1), 1470 nM; with BCP-1 (read-out: CC50, BCP-1), 2430 nM; in the data set with JSC-1 (read-out: CC50, JSC-1) it was 9840 nM. Further, in the data set on BRD4, the c-Myc expression entry is on record as “drastically downregulated”.

Turning to `COC(=O)c1ccc([C@H](C)OC(=O)C[C@@H]2N=C(c3ccc(Cl)cc3)c3c(sc(C)c3C)-n3c(C)nnc32)cc1` [009N4, methyl 4-((S)-1-(2-((S)-4-(4-chlorophenyl)-2,3,9-trimethyl-6H-thieno[3,2-f][1,2,4]triazolo[4,3-a][1,4]diazepin-6-yl)acetoxy)ethyl)benzoate], the CC50 worked out at 180 nM in the data set on BCBL-1 (read-out: CC50, BCBL-1); 340 nM in the data set with BC-1 (read-out: CC50, BC-1); 530 nM in the data set on BCP-1 (read-out: CC50, BCP-1); 2320 nM in the data set with JSC-1 (read-out: CC50, JSC-1). In addition, in the data set on BRD4, the c-Myc expression entry is “drastically downregulated”.

Turning to `Nc1ccccc1NC(=O)c1ccc(CNC(=O)OCc2cccnc2)cc1` [Entinostat, reference compound], the figures for the CC50 at 72 h in data set [1] and in [2] were 570 nM and 420 nM, respectively. The CC50 was 180 nM in the data set with BJAB.219; 170 nM in the data set on BCBL-1 (read-out: KSHV-infected lymphomas CC50, BCBL-1); 300 nM with BC-1 (read-out: KSHV-infected lymphomas CC50, BC-1); 200 nM with BCP-1 (read-out: KSHV-infected lymphomas CC50, BCP-1); 150 nM with JSC-1 (read-out: KSHV-infected lymphomas CC50, JSC-1). Further, the “Cytotoxicity in primary cells HUVEC” value in the data set with HUVEC is given as “moderate cytotoxicity”.
